The test system of this test is SARS-CoV-2. Nature of the test: microbe, parasite or virus in culture. Particulars: Severe acute respiratory syndrome coronavirus 2, Vero C1008, 48 h; for IC50: read-out: pIC50 (converted).

Each structure is given as a SMILES string. pIC50: −log10 of the molar value.

This note sets out measurements from ChEMBL document CHEMBL4651402, “Screening of ~5500 FDA-approved drugs and clinical candidates for anti-SARS-CoV-2 activity” (2021).

By pIC50 is commonly meant −log10 of the IC50, conventionally taken in molar units. In the case of `C#C[C@]1(O)CCC2C3CCC4=CC(=O)CCC4C3CCC21CC` (stereo partly specified), the pIC50 was below 4.70 and the IC50 is above 20 µM.
In the case of `CC(=O)OC1CC(OC2C(O)CC(OC3C(O)CC(OC4CCC5(C)C(CCC6C5CC(O)C5(C)C(C7=CC(=O)OC7)CCC65O)C4)OC3C)OC2C)OC(C)C1OC1OC(CO)C(O)C(O)C1O` (stereo unspecified), the pIC50 was below 4.70 and the IC50 was above 20 µM.
On the same counts, the results for `O=C(Nc1ccc(C(=O)N2C[C@H]3COCCN3Cc3ccccc32)c(Cl)c1)c1ccccc1-c1ccccc1` are below 4.70 and above 20 µM.
Turning to `CN(C)CCc1c[nH]c2ccccc12`, the negative-log IC50 (pIC50) was below 4.70 and the IC50 is above 20 µM.
For `CC(=O)OCC(=O)C1CCC2C3CC=C4CC(O)CCC4(C)C3CCC12C` (stereo unspecified), the negative logarithm of the IC50 (pIC50) was below 4.70 and the IC50 was above 20 µM.
As to `N=C(N)NCCNS(=O)(=O)c1cccc2cnccc12`, the pIC50 was below 4.70 and the IC50 is above 20 µM.
As to `CCN(CC)CCSC(=O)C(c1ccccc1)c1ccccc1`, the negative-log IC50 (pIC50) is below 4.70 and the IC50 is above 20 µM.
With `C(#CCN1CCCC1)CN1CCCC1`, the pIC50 was below 4.70 and the IC50 is above 20 µM.
Take `Nc1ccc(S(=O)(=O)O)cc1`: the pIC50 is below 4.70 and the IC50 was above 20 µM.
For the compound `CC(=O)OC1CCC2C3CCc4cc(O)ccc4C3CCC12C` (stereo unspecified), the negative-log IC50 (pIC50) is below 4.70 and the IC50 was above 20 µM.
Take `Nc1nncs1`: the pIC50 is below 4.70 and the IC50 is above 20 µM.
For the compound `c1ccc2c(c1)CCCc1cc(NCCN3CCOCC3)nnc1-2`, the negative-log IC50 (pIC50) was below 4.70 and the IC50 is above 20 µM.
In the case of `C[N+]1([O-])[C@@H]2C[C@@H](OC(=O)[C@H](CO)c3ccccc3)C[C@H]1[C@@H]1O[C@@H]12` (stereo partly specified), the pIC50 was below 4.70 and the IC50 was above 20 µM.
On the same counts, the results for `COC(=O)CC(O)(CCC(C)(C)O)C(=O)OC1C(OC)=CC23CCCN2CCc2cc4c(cc2C13)OCO4` (stereo unspecified) are below 4.70 and above 20 µM.
Turning to `CC1(C(=O)O)CCC2(C)CCC3(C)C(=CC(=O)C4C5(C)CCC(O)C(C)(C)C5CCC43C)C2C1` (stereo unspecified), the pIC50 is below 4.70 and the IC50 is above 20 µM.
With `COc1cc2c(cc1OC)C1Cc3ccc(OC)c(OC)c3CN1CC2` (stereo unspecified), the pIC50 was below 4.70 and the IC50 was above 20 µM.
With `CC(=O)SCCC(=O)N1C(C)CCCC1C(=O)O` (stereo unspecified), the pIC50 was below 4.70 and the IC50 is above 20 µM.
For `CC(=O)NS(=O)(=O)c1ccc(NC(=O)c2ccccc2C(=O)O)cc1`, the pIC50 was below 4.70 and the IC50 was above 20 µM.
With `C=C(C)CC1(CC)C(=O)NC(=S)NC1=O`, the pIC50 was below 4.70 and the IC50 was above 20 µM.
As for `O=c1[nH]c(=O)n(C2CC(O)C(CO)O2)cc1I` (stereo unspecified), the pIC50 is below 4.70 and the IC50 was above 20 µM.
Take `CC(C)c1ccc2c(c1)c(SC(C)(C)C)c(CC(C)(C)C(=O)O)n2Cc1ccc(Cl)cc1`: the negative logarithm of the IC50 (pIC50) is below 4.70 and the IC50 is above 20 µM.
For `CCC(=O)OC1CCC2C3CCC4=CC(=O)CCC4(C)C3CCC12C` (stereo unspecified), the negative-log IC50 (pIC50) was below 4.70 and the IC50 is above 20 µM.
Take `CC(N)C(O)c1cccc(O)c1` (stereo unspecified): the pIC50 was below 4.70 and the IC50 is above 20 µM.
For `NC(COCc1ccccc1)C(=O)O` (stereo unspecified) the same measures were below 4.70 and above 20 µM.
On to `O[C@](Cn1cncn1)(Cn1cnc(/C=C/c2ccc(OCC(F)(F)C(F)F)cc2)n1)c1ccc(F)cc1F`, for which the pIC50 is below 4.70 and the IC50 is above 20 µM.
For `CC(CCC(=O)O)C1CCC2C3C(=O)CC4CC(=O)CCC4(C)C3CC(=O)C12C` (stereo unspecified) the same measures were below 4.70 and above 20 µM.
In the case of `O=C(OCCN1CCCCCC1)C(c1ccsc1)C1CCCCC1` (stereo unspecified), the pIC50 was below 4.70 and the IC50 is above 20 µM.
As to `C=CCN1CC[C@]23CCCCC2[C@H]1Cc1ccc(O)cc13` (stereo partly specified), the pIC50 was below 4.70 and the IC50 was above 20 µM.
On the same counts, the results for `COc1ccc(CN(C(=O)[C@@H](N)Cc2c(C)cc(C(N)=O)cc2C)[C@H](C)c2nc(-c3ccccc3)c[nH]2)cc1C(=O)O` are below 4.70 and above 20 µM.
For the compound `c1cc2c(cc1C1CCCCC1)c1c3n2CCNC3CCC1` (stereo unspecified), the pIC50 was below 4.70 and the IC50 was above 20 µM.
For the compound `Clc1ccc(OC[C@@H]2CCN2)cn1`, the negative logarithm of the IC50 (pIC50) is below 4.70 and the IC50 was above 20 µM.
On to `Nc1c(O)cccc1C(=O)CC(N)C(=O)O` (stereo unspecified), for which the pIC50 is below 4.70 and the IC50 is above 20 µM.
For the compound `CC12CCC(=O)C=C1CCC1C3CCC(O)(C(=O)CO)C3(C)CC(O)C12F` (stereo unspecified), the negative logarithm of the IC50 (pIC50) is below 4.70 and the IC50 is above 20 µM.
For the compound `CCC(CCC(C)C1CCC2C3CC[C@H]4CC(O)CCC4(C)C3CCC12C)C(C)C` (stereo partly specified), the negative-log IC50 (pIC50) was below 4.70 and the IC50 is above 20 µM.
Consider `[2H]C([2H])([2H])O[C@@H]1CN(CCCOc2ccc(F)cc2)CC[C@@H]1NC(=O)c1cc(Cl)c(N)cc1OC`, for which the negative logarithm of the IC50 (pIC50) is below 4.70 and the IC50 was above 20 µM.
For `O=c1cccc2n1CC1CC2CN2CCCCC12` (stereo unspecified) the same measures were below 4.70 and above 20 µM.
On the same counts, the results for `CCC(CCC(C)C1CCC2C3CC=C4CC(OC(C)=O)CCC4(C)C3CCC12C)C(C)C` (stereo unspecified) are below 4.70 and above 20 µM.
As to `CC12C=CC(=O)C=C1CCC1C2CCC2(C)C1CC[C@]2(C)O` (stereo partly specified), the pIC50 is below 4.70 and the IC50 is above 20 µM.
In the case of `CC(C)(C)C(O)(COc1ccc(Cl)cc1)Cn1cncn1` (stereo unspecified), the negative logarithm of the IC50 (pIC50) is below 4.70 and the IC50 was above 20 µM.
For `NC(=S)N/N=C/c1ccncc1`, the pIC50 is below 4.70 and the IC50 was above 20 µM.
On the same counts, the results for `C[C@@H]1NC(=O)C2(CCCC2)NC1=O` are below 4.70 and above 20 µM.
As for `CC12CCC(=O)C=C1C=CC1C2CCC2(C)C1CCC2(O)CCC(=O)O` (stereo unspecified), the pIC50 is below 4.70 and the IC50 is above 20 µM.
For the compound `CC(=O)OC1(C(C)=O)CCC2C3CC(C)C4=CCCCC4(C)C3CCC21C` (stereo unspecified), the pIC50 is below 4.70 and the IC50 is above 20 µM.
For `CCOC(=O)CN1CCN(C(=O)C=Cc2cc(OC)c(OC)c(OC)c2)CC1` the same measures were below 4.70 and above 20 µM.
Turning to `CC(C)CCCC(C)C1CCC2C3CC[C@H]4CCCC[C@]4(C)C3CCC12C` (stereo partly specified), the negative logarithm of the IC50 (pIC50) is below 4.70 and the IC50 was above 20 µM.
On the same counts, the results for `CN(C)S(=O)(=O)c1cc2c(c(Cl)c1Cl)OC(C(=O)O)C2` (stereo unspecified) are below 4.70 and above 20 µM.
In the case of `CN1C(=O)/C(=N/NC(N)=S)c2ccccc21`, the negative logarithm of the IC50 (pIC50) was below 4.70 and the IC50 is above 20 µM.
With `CC12CCC3C(CCC4CC(N)C(O)CC43C)C1CCC2=O` (stereo unspecified), the pIC50 is below 4.70 and the IC50 was above 20 µM.
For `CC1(C)OC2CC3C4CC(F)C5=CC(=O)C=CC5(C)C4(Cl)C(Cl)CC3(C)C2(C(=O)CCl)O1` (stereo unspecified) the same measures were below 4.70 and above 20 µM.
For `CC(=O)OC1CCC2(C)C(=CCC3C2CCC2(C)C(O)CCC32)C1` (stereo unspecified), the pIC50 is below 4.70 and the IC50 is above 20 µM.
With `C=CCNC1=C2C[C@@H](C)C[C@H](OC)[C@H](O)[C@@H](C)/C=C(/C)[C@H](OC(N)=O)[C@@H](OC)/C=C\C=C(\C)C(=O)NC(=CC1=O)C2=O`, the pIC50 is below 4.70 and the IC50 is above 20 µM.
In the case of `CCC1(O)CC2CN(CCc3c([nH]c4ccccc34)C(C(=O)OC)(c3cc4c(cc3OC)N(C)C3C(O)(C(=O)OC)C(OC(C)=O)C5(CC)C=CCN6CCC43C65)C2)C1` (stereo unspecified), the negative logarithm of the IC50 (pIC50) is below 4.70 and the IC50 is above 20 µM.
For the compound `CC12C=CC(=O)C=C1[C@@H](F)CC1C2C(O)CC2(C)C1CCC2(O)C(=O)CO` (stereo partly specified), the pIC50 is below 4.70 and the IC50 is above 20 µM.
As for `CC[C@@H](C)n1ncn(-c2ccc(N3CCN(c4ccc(OC[C@H]5CO[C@@](Cn6cncn6)(c6ccc(F)cc6F)O5)cc4)CC3)cc2)c1=O`, the negative logarithm of the IC50 (pIC50) is below 4.70 and the IC50 is above 20 µM.
Regarding `CCC1(CC)C(=O)NC(=S)NC1=O`, the negative logarithm of the IC50 (pIC50) is below 4.70 and the IC50 is above 20 µM.
On to `CCCCCC(=O)CCC1(C)C2Cc3ccc(O)cc3C1(C)CCN2C` (stereo unspecified), for which the pIC50 is below 4.70 and the IC50 was above 20 µM.
On the same counts, the results for `COC1C(C)OC(OC2C=C3CCC4C(CCC5(C)C(c6ccc(=O)oc6)CCC45O)C3(C)CC2)C(O)C1O` (stereo unspecified) are below 4.70 and above 20 µM.
With `CO[C@H]1/C=C\O[C@@]2(C)Oc3c(C)c(O)c4c(=O)c(c5oc6cc(N7CCN(CC(C)C)CC7)cc(O)c6nc-5c4c3C2=O)NC(=O)/C(C)=C\C=C/[C@H](C)[C@H](O)[C@@H](C)[C@@H](O)[C@@H](C)[C@H](OC(C)=O)[C@@H]1C`, the pIC50 is below 4.70 and the IC50 was above 20 µM.
As for `O=C(O)C(=O)Cc1c[nH]c2ccccc12`, the pIC50 is below 4.70 and the IC50 is above 20 µM.
Consider `Cc1c(-c2cccnc2)n(CCCCCCCC(=O)O)c2ccccc12`, for which the pIC50 was below 4.70 and the IC50 is above 20 µM.
As for `Cc1cc(O)cc(=O)o1`, the pIC50 was below 4.70 and the IC50 is above 20 µM.
For the compound `COc1ccccc1-c1coc2cc(O)ccc2c1=O`, the pIC50 is below 4.70 and the IC50 is above 20 µM.
On to `NC(=O)Oc1ccc(Cc2ccccc2)cc1`, for which the pIC50 was below 4.70 and the IC50 is above 20 µM.
Consider `COc1cc2c(cc1OC)[C@H]1CC(=O)[C@H](CC(C)C)CN1CC2`, for which the pIC50 was below 4.70 and the IC50 is above 20 µM.
For `CC(=O)Nc1cc2ccccc2oc1=O` the same measures were below 4.70 and above 20 µM.
Take `CCC(C)n1ncn(-c2ccc(N3CCN(c4ccc(OC[C@@H]5CO[C@@](Cn6cncn6)(c6ccc(Cl)cc6Cl)O5)cc4)CC3)cc2)c1=O` (stereo partly specified): the negative-log IC50 (pIC50) is below 4.70 and the IC50 is above 20 µM.
For `CCN(CC)C(=S)SSC(=S)N(CC)CC` the same measures were below 4.70 and above 20 µM.
On to `COc1ccccc1N1CCNCC1`, for which the pIC50 is below 4.70 and the IC50 was above 20 µM.
